Results taken from US20250250538A1, “METHODS FOR MAKING AND USING DIFFERENTIATED NEURAL CELLS” (RESEARCH DEVELOPMENT FOUNDATION, priority 2022, published 2025).

How the values were obtained:
[1] = system: human embryonic stem cell line HS420; test: Dopaminergic differentiation of hESC with ALK inhibitors in the 3D-AirLiwell protocol, q-PCR after 2 and 4 weeks; format: cell-based; details: HS420, 3D-AirLiwell, q-PCR at 2 and 4 weeks; for activity with respect to general neural differentiation, compared to LDN/SB (dual smad inhibition): exposed from day 0 during one week at 0.2 μM and 0.8 μM; for effect on dopaminergic differentiation, compared to LDN/SB: exposed from day 0 during one week at 0.2 M and 0.8 M
Procedure: FIG. 22. Dopaminergic differentiation adding Alk-I compounds in 3D-Ali protocol. The concentrations of the compounds tested were 0.2 μM and 0.8 μM.
FIG. 23A-D. Quantitative PCR results: Dopaminergic differentiation adding Alk-I compounds in 3D-Ali protocol. Shown are qPCR results at week 2 and week 4 for (A) Ki-67 and Nestin; (B) Pax6 and B3-Tub; (C) Lmx1a and Nurr-1; and (D) Map-2 and TH. The data in FIGS. 23A-D shown in each group of 12 bars represents, from left to right: 1: Control day 0, 2: LDN193189/SB431542, 3: DMSO 0.2 μM, 4: DMSO 0.8 μM, 5: DMH1 0.2 μM, 6: DMH2 0.2 μM, 7: A-8301 0.2 μM, 8: K02288 0.2 μM, 9: DMH1 0.8 μM, 10: DMH2 0.8 μM, 11: A-8301 0.8 μM, 12: K02288 0.8 μM. The 11 bars in the bottom bar graph in FIG. 23D represent data, from left to right, from: 1: Control day 0, 2: LDN193189/SB431542, 3: DMSO 0.2 μM, 4: DMSO 0.8 μM, 5: DMH1 0.2 μM, 6: DMH2 0.2 μM, 7: A-8301 0.2 μM, 8: K02288 0.2 μM, 9: DMH1 0.8 μM, 10: DMH2 0.8 μM, and 11: A-8301 0.8 μM.
For neural differentiation, 2200 human pluripotent stem cells per microwell in supplemented X-VIVO medium were deposited on a substrate material consisting in molded microwells on an insert in air-liquid interface (720 microwells per well). In order to correctly distribute the cells in each microwell, the substrate material is gently shacked and put on a stable support for 15 min. Supplemented X-VIVO medium was added under the insert. Medium from the cell suspension added on the microwells, was then removed by aspiration with a 0.5×16 mm needle and spheroids are just covered by a thin film (10) of residual medium before incubation of the plate at 37° C. for 24 hours.
24 hours after spheroids formation, culture medium under the insert is replaced with fresh medium made by a combination of half X-VIVO and half Neurobasal medium without ROCK inhibitor supplemented with 1% of penicillin/streptomycin, 1% Non-essential amino-acids, 1% B-27 supplement (Thermofisher), L-Glutamin, 0.5 μM of SB431542, 10 μM LDN193189 (dual-SMAD inhibition cocktail), 100 ng/ml of SHH, 2 μM of Purmorphamin and 100 ng/ml FGF-8. Spheroids are then cultured in their individualized microwells in a conventional incubator at 37° C. and 5% C02. At day 3, 3 μM of CHIR99021 was added. The neurobasal medium replaced progressively the X-VIVO medium. At day 8, medium is replaced by Neurobasal medium supplemented with 1% of penicillin/streptomycin, 1% Non-essential amino-acids, 1% B-27 supplement, 3 μM of CHIR99021, 0.5 mM of cAMP, […], […], 5 ng/mL of FGF20, 1 ng/mL of TGF-B3 and 1 μM of Compound E. At day 13 CHIR99021 is removed. NB: for each medium exchange, the half of medium was refreshed, using 0.5 ml per well.
For qRT-PCR, RNA was extracted from dopaminergic neurospheres cultivated in immersion (3D-i) and in air-liquid culture interface (3D-ALi) derived from 3 different cell batches of HS420 cells. The time points for RNA extraction were days: 3, 8, 15, 22, 29, 43, 57. Total RNA isolation was performed using the Qiagen RNeasy kit according to the manufacturer's instructions. RNA concentration was determined by a spectrometer (Thermo Scientific™ NanoDrop 2000) and RNA quality was verified by the 2100 Bioanalyzer (Agilent). Quantitative PCR was performed with Tecan Freedom Evo by using SYBR green fluorescence. cDNA was produced from RNA by using the prime script RT reagent kit (Takara). All primers were diluted at a concentration of […], and a master mix was used (Power SYBR Green Master Mix, Thermo Fisher Scientific). To perform the RNA-sequencing, the same RNA used in qPCR, were used to analyze the gene expression at week 6 (=day 43) of differentiation. […]

[2] = system: dopaminergic neurospheres; test: Effect of laminin and hypoxia on dopaminergic maturation of neurospheres; format: cell-based, human; details: 2.5% and 10% laminin; normoxia (20% oxygen) or hypoxia (3% oxygen); day 29
From the text: FIG. 17. Experimental design and engineering of maturation protocol.
FIG. 18. Effect of hypoxia and laminin on dopaminergic maturation.
To improve the maturation step, 2.5% or 10% of Laminin 511 (Takkara) or Geltrex® (A growth factors reduced extracellular matrix, ThermoFisher) will be added into the cell culture medium to promote neuronal maturation of spheroids starting from day 1 of differentiation to the end and from day 13 to the end. RGD peptides could also be tested to enhance maturation, by adding them to the culture medium similarly to laminin or geltrex.
The inventors tested whether the additional of an extracellular matrix and/or hypoxia could improve the development of mature neurons. 2.5% and 10% laminin and normoxia (20% oxygen) or hypoxia (3% oxygen) was tested (FIG. 17). […] It was further hypothesized that other changes to the cell culture, such as modification of the volume of the cell culture medium could provide for an improvement in the maturation of neurons. […] In AirLiwell (6 well plate), a seeding 1.5 million cells per well (6 well AirLiwell plate) yields 2350 neurospheres.

[3] = system: dopaminergic neurospheres; test: Effects of antioxidants on three-dimensional dopaminergic neuron differentiation (3D-Ali); format: cell-based, human; details: 3D-Ali neurospheres cultured with anti-oxidant (FIG. 21B)
From the text: FIG. 20. Protocol design with the addition of anti-oxidants. FIG. 21A-B. Effects of DA maturation with the additional of anti-oxidants. […] The inventors also tested the effects of different antioxidants on three-dimensional dopaminergic neuron differentiation. […] Most of the tested anti-oxidants diminish TH expression during dopaminergic neuron differentiation.

c1ccc2c(-c3cnn4cc(-c5ccc(OCCN6CCOCC6)cc5)cnc34)ccnc2c1 [DMH2, 4-[6-[4-[2-(4-Morpholinyl)ethoxy]phenyl]pyrazolo[1,5-a]pyrimidin-3-yl]quinoline]
activity with respect to general neural differentiation, compared to LDN/SB (dual smad inhibition) [1]: activity comparable to LDN/SB
effect on dopaminergic differentiation, compared to LDN/SB [1]: roughly equipotent as compared to LDN/SB

COc1cc(-c2cc(-c3cccc(O)c3)cnc2N)cc(OC)c1OC [K02288]
activity with respect to general neural differentiation, compared to LDN/SB (dual smad inhibition) [1]: activity comparable to LDN/SB
effect on dopaminergic differentiation, compared to LDN/SB [1]: no major effects

CC(C)Oc1ccc(-c2cnc3c(-c4ccnc5ccccc45)cnn3c2)cc1 [DMH1, 4-[6-[4-(1-Methylethoxy)phenyl]pyrazolo[1,5-a]pyrimidin-3-yl]-quinoline]
activity with respect to general neural differentiation, compared to LDN/SB (dual smad inhibition) [1]: activity comparable to LDN/SB
effect on dopaminergic differentiation, compared to LDN/SB [1]: roughly equipotent as compared to LDN/SB

Cc1cccc(-c2nn(C(=S)Nc3ccccc3)cc2-c2ccnc3ccccc23)n1 [A-8301, 3-(6-Methyl-2-pyridinyl)-N -phenyl-4-(4-quinolinyl)-1H -pyrazole-1-carbothioamide]
activity with respect to general neural differentiation, compared to LDN/SB (dual smad inhibition) [1]: activity comparable to LDN/SB
effect on dopaminergic differentiation, compared to LDN/SB [1]: no major effects

laminin
effect on maturation of dopaminergic neurons [2]: did not provide any apparent effect

O=C1O[C@H]([C@@H](O)CO)C(O)=C1O [ascorbic acid]
DA neuron differentiation [3]: marked enhancement
